Measured values from publication PMC10820527, “Synthesis, Characterization, and Investigation of Anti-Inflammatory and Cytotoxic Activities of Novel Thiourea Derivatives of Naproxen” (Pharmaceutics, 2023).
Where two headings read alike, the source gives them in different places.

How the values were obtained:
[1] = system: MCF-7, MDA-MB-231, HeLa, and HCT-116; conditions: cited from earlier work
HeLa = assay: MTT cytotoxicity assay, HeLa; type: cell-based, human; conditions: mean ± SD
Description: (§1) Three cancer cell lines (MDA-MB-231, HCT116 and HeLa; i.e., human breast cancer cells, human colorectal cancer cells, and human cervical cancer cells, respectively), and one non-malignant fibroblast MRC-5 cell line (control) were used in this study. The American Type Cell Collection (ATCC, Manassas, VA, USA) provided all examined cell lines. The cells were grown in a complete medium made up of high-glucose DMEM media supplemented with 10% fetal bovine serum and […] L-glutamine (both from Sigma-Aldrich, USA). The cells were cultured in 25 cc flasks (Thermo Fischer Scientific, Waltham, MA, USA) at 37 °C with 100% humidity in a 5% CO2 atmosphere.
(§2) The MTT test was used to assess the cytotoxicity of compounds 1–14 [44]. The cytotoxicity of naproxen was also investigated due to its clinical use and structural similarity. Throughout the exponential development period, cells were taken from culture flasks and counted, and 5 × 10^3 cells/well were planted into 96-well culture plates. Following that, the cell lines were treated with varying doses of the investigated chemicals (1–14), naproxen ([…]), and fresh complete media as a control. All evaluated cells were incubated for 24, 48, and 72 h at 37 °C in an environment containing 5% CO2 and 100% humidity. Following incubation, each well’s culture media was taken out, each well received an addition of MTT solution at a final concentration of 0.5 mg/mL, and the cells were left to incubate for an additional four hours. The MTT solution was then withdrawn carefully, and the formazan crystals were dissolved in DMSO. After shaking the plates for 10 min, absorbance at 595 nm was measured using a multiplate reader (Zenyth 3100, Anthos Labtec Instruments, Salzburg, Austria). All concentrations of the tested compounds were performed in three separate wells of the microtiter plates and in three separate experiments. The results were reported as a ratio to the control value, untreated cells. IC50 values were also determined using Microsoft Office Excel 2021. The percentage of viable cells was estimated by dividing the readout absorbance value in the wells containing treated cells by the average absorbance value measured in the wells containing untreated cells, and multiplying the result by 100 [44]. % of the viable cells = ((absorbance of treated cell-absorbance of blank)/(absorbance of untreated cell-absorbance of blank)) × 100(3)

5-LOX = target: T1, 5-LOX (Homo sapiens, UniProt P09917); parameters: method as in PMID 37242450; conditions: among compounds 1–5, previously published study ref 37; cited from earlier work
T1 construct: purchased Abcam
T1 sequence (P09917 1-674): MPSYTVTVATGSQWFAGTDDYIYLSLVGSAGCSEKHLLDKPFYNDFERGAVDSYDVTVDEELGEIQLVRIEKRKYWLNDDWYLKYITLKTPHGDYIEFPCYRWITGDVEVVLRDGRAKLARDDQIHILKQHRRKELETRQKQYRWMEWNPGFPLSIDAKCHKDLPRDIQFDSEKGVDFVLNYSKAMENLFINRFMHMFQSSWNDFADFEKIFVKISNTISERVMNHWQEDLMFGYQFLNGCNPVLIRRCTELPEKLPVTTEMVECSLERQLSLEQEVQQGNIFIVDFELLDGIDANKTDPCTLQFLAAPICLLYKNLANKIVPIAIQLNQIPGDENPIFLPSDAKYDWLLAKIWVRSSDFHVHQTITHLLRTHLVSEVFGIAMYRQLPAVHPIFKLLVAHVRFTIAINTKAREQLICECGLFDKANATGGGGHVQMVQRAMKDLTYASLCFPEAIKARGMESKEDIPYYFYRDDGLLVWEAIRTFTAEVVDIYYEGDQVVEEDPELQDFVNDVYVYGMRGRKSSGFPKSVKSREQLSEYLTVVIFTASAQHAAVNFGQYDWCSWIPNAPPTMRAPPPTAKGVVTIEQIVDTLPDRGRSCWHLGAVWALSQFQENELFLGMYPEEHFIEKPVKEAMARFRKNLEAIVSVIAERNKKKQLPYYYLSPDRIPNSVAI

[2] = system: MRC-5 fibroblast cell line; assay: MTT cytotoxicity assay, MRC-5; type: cell-based; conditions: for IC50: mean ± SD
Description: as §1, §2

MDA-MB-231 = assay: MTT cytotoxicity assay, MDA-MB-231; type: cell-based, human; conditions: mean ± SD
Description: as §1, §2

HCT 116 = assay: MTT cytotoxicity assay, HCT 116; type: cell-based, human; conditions: for IC50: mean ± SD
Description: as §1, §2

[3] = system: carrageenan-induced rat paw edema; assay: Carrageenan-induced rat paw edema model; type: in vivo; conditions: for Rat Paw Thickness: mean ± SD; for inhibition in vivo at 2.5 mg/kg / inhibition in vivo at 5 mg/kg / inhibition in vivo at 10 mg/kg: Rattus norvegicus
Description: The Carrageenan-induced rat paw edema model was used to assess the anti-inflammatory potential of novel compounds 8–14. Induction of inflammation was performed in all animals by intraplantar injection of […] 0.5% carrageenan saline into the left hind paw.
Animals (n = 200) were randomly divided into the following groups: control groups, that received either 1% DMSO or naproxen, and experimental groups, that received the novel compounds 8–14.
Control groups included DMSO and naproxen groups. Rats belonging to the DMSO group received 1% DMSO in the same volume as the compounds 8–14, 60 min before carrageenan injection. Moreover, naproxen groups included rats that were subjected to naproxen treatment in three doses: 2.5 mg/kg, 5 mg/kg, and 10 mg/kg. Naproxen was applied in the same manner as 1% DMSO.
Experimental groups included rats that were treated with compounds 8–14 and they were divided into three subgroups depending on the applied dose: 2.5 mg/kg, 5 mg/kg, and 10 mg/kg. The examined compounds were dissolved in 1% DMSO prior to treatment and applied to rats 60 min before inducing inflammation, i.e., before carrageenan injection. Doses of naproxen and investigated compounds were defined based on our previously published research.
In order to quantify the anti-inflammatory effects of the tested compounds, left paw thickness was measured at specific time points: prior to inflammation induction (moment 0) and 1, 2, 3, and 4 h (moments 1, 2, 3, and 4) following carrageenan injection. Tissue thickness was measured in the middle of the rat paw using a Digital Vernier caliper (Aerospace, China). The percentage of inhibition of paw edema after treatment with different agents was calculated according to the formula, Equation (2):% Inhibition = 100 × [1 − (Yt/Yc)](2) where Yt = average increase in paw thickness in the treated group of rats between two measurement moments, and Yc = average increase in paw thickness in the untreated group of rats between two measurement moments.

[4] = read-out: IC50 (cytotoxic activity of reference drugs), range over MCF-7, MDA-MB-231, HeLa, and HCT-116

## CN(C)C/C=C/C(=O)Nc1cc2c(Nc3ccc(F)c(Cl)c3)ncnc2cc1O[C@H]1CCOC1 [afatinib]
[1]
  IC50: 6.2 to 11.4 µM

## Cc1ccc(-c2cc(C(F)(F)F)nn2-c2ccc(S(N)(=O)=O)cc2)cc1 [celecoxib]
[1]; [4]
  IC50: 22.8 to 42.7 µM

## COc1cccc2c1C(=O)c1c(O)c3c(c(O)c1C2=O)C[C@@](O)(C(=O)CO)C[C@@H]3O[C@H]1C[C@H](N)[C@H](O)[C@H](C)O1 [doxorubicin]
[1]; [4]
  IC50: 3.18 to 26.8 µM

## COc1cccc(NC(=S)NC(=O)[C@@H](C)c2ccc3cc(OC)ccc3c2)c1 [Compound 4]
HeLa; 24 h
  IC50: > 200 µM
HeLa; 48 h
  IC50: 101 ± 12.2 µM
HeLa; 72 h
  IC50: 90.8 ± 8.3 µM
5-LOX
  5-LOX inhibition (in words): strongest 5-LOX inhibition
[2]; 24 h
  IC50: > 200 µM
[2]; 48 h
  IC50: > 200 µM
[2]; 72 h
  IC50: > 200 µM
MDA-MB-231; 24 h
  IC50: > 200 µM
MDA-MB-231; 48 h
  IC50: > 200 µM
MDA-MB-231; 72 h
  IC50: 110 ± 12.9 µM
HCT 116
  Cytotoxic effect against the HCT 116 cell line (in words): moderate cytotoxic effects
HCT 116; 48 h
  IC50: 106 ± 12.9 µM
HCT 116; 72 h
  IC50: 71.6 ± 9.9 µM

## COc1ccc2cc([C@H](C)C(=O)O)ccc2c1 [Naproxen, naproxen]
HeLa; Homo sapiens, HeLa, 24 h
  IC50: > 200 µM
HeLa; Homo sapiens, HeLa, 48 h
  IC50: > 200 µM
HeLa; Homo sapiens, HeLa, 72 h
  IC50: > 200 µM
[3]; 2.5 mg/kg, 1 h after carrageenan
  Rat Paw Thickness: 6.35 ± 0.15 mm
[3]; 2.5 mg/kg, 2 h after carrageenan
  Rat Paw Thickness: 6.02 ± 0.15 mm
[3]; 2.5 mg/kg, 3 h after carrageenan
  Rat Paw Thickness: 5.75 ± 0.20 mm
[3]; 2.5 mg/kg, 4 h after carrageenan
  Rat Paw Thickness: 5.18 ± 0.20 mm
[3]; 5.0 mg/kg, 1 h after carrageenan
  Rat Paw Thickness: 6.02 ± 0.20 mm
[3]; 5.0 mg/kg, 2 h after carrageenan
  Rat Paw Thickness: 5.52 ± 0.30 mm
[3]; 5.0 mg/kg, 3 h after carrageenan
  Rat Paw Thickness: 5.22 ± 0.30 mm
[3]; 5.0 mg/kg, 4 h after carrageenan
  Rat Paw Thickness: 4.98 ± 0.24 mm
[3]; 10.0 mg/kg, 1 h after carrageenan
  Rat Paw Thickness: 5.88 ± 0.23 mm
[3]; 10.0 mg/kg, 2 h after carrageenan
  Rat Paw Thickness: 5.55 ± 0.45 mm
[3]; 10.0 mg/kg, 3 h after carrageenan
  Rat Paw Thickness: 5.35 ± 0.32 mm
[3]; 10.0 mg/kg, 4 h after carrageenan
  Rat Paw Thickness: 4.95 ± 0.35 mm
[3]; 2.5 mg/kg, 1 h
  inhibition in vivo at 2.5 mg/kg: 19.7%
[3]; 2.5 mg/kg, 2 h
  inhibition in vivo at 2.5 mg/kg: 25.8%
[3]; 2.5 mg/kg, 3 h
  inhibition in vivo at 2.5 mg/kg: 26.1%
[3]; 2.5 mg/kg, 4 h
  inhibition in vivo at 2.5 mg/kg: 46.7%
[3]; 5.0 mg/kg, 1 h
  inhibition in vivo at 5 mg/kg: 27.9%
[3]; 5.0 mg/kg, 2 h
  inhibition in vivo at 5 mg/kg: 42.4%
[3]; 5.0 mg/kg, 3 h
  inhibition in vivo at 5 mg/kg: 47.7%
[3]; 5.0 mg/kg, 4 h
  inhibition in vivo at 5 mg/kg: 51.1%
[3]; 10.0 mg/kg, 1 h
  inhibition in vivo at 10 mg/kg: 36.1%
[3]; 10.0 mg/kg, 2 h
  inhibition in vivo at 10 mg/kg: 43.9%
[3]; 10.0 mg/kg, 3 h
  inhibition in vivo at 10 mg/kg: 45.9%
[3]; 10.0 mg/kg, 4 h
  inhibition in vivo at 10 mg/kg: 57.8%
[2]
  Effect on the viability of the MRC-5 fibroblast cell line (in words): insignificant effect
[2]; Homo sapiens, MRC5, 24 h
  IC50: > 200 µM
[2]; Homo sapiens, MRC5, 48 h
  IC50: > 200 µM
[2]; Homo sapiens, MRC5, 72 h
  IC50: > 200 µM
MDA-MB-231; Homo sapiens, MDA-MB-231, 24 h, 24 h
  IC50: > 200 µM
MDA-MB-231; Homo sapiens, MDA-MB-231, 48 h, 48 h
  IC50: > 200 µM
MDA-MB-231; Homo sapiens, MDA-MB-231, 72 h, 72 h
  IC50: > 200 µM
HCT 116; Homo sapiens, HCT-116, 24 h
  IC50: > 200 µM
HCT 116; Homo sapiens, HCT-116, 48 h
  IC50: > 200 µM
HCT 116; Homo sapiens, HCT-116, 72 h
  IC50: > 200 µM
